Laboratory results reported in patent publication US10703698B2, “Compounds which activate estrogen receptors and compositions and methods of using the same” (The Board of Trustees of the University of Illinois, priority 2016, dated 2020).
“Also recorded” adds a separate entry of the source.

What was measured:
[1] = tested on: MCF-7 cells; test: MCF-7 cell proliferation, WST-1 assay; type: cell-based, human; conditions: 6 days
Description: Cells were seeded at 1000 cells/well in 96-well plates.

[2] = molecular target: T1, ERα-SRC3 interaction (Homo sapiens, UniProt P03372); test: co-immunoprecipitation of ERα and SRC3 in MCF-7 cells; type: cell-based; conditions: 10 nM E2 or 1 μM PaPE-1, 1 h
T1 construct: endogenous in cells; host or cells: MCF-7
T1 sequence (P03372 1-595): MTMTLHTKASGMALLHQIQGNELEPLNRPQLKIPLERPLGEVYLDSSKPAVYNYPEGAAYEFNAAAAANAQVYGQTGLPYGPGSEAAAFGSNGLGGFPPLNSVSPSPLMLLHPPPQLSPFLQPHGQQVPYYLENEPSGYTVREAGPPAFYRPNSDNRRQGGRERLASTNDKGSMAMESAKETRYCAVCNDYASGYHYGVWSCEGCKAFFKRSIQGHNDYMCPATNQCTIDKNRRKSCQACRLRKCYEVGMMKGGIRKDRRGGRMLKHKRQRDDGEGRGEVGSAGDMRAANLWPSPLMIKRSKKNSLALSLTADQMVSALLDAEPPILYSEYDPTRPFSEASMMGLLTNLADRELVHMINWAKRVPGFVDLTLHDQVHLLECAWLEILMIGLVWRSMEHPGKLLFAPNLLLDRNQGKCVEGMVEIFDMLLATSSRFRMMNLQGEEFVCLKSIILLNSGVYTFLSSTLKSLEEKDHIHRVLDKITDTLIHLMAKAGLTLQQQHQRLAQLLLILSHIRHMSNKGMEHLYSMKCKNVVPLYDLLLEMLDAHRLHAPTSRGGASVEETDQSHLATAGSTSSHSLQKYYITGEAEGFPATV
Source text: FIG. 10. Estrogen receptor and coactivator binding and interaction assays with ligands and ligand dissociation rates. […] After ligand treatment, cell lysates were immunoprecipitated with antibody to SRC3 or control IgG, and immunoprecipitates were separated on SDS PAGE gels and blotted for ERα using anti-ERα antibody. […] For details, see methods below.
(§1) Western blot analysis used specific antibodies for ERα (HC-20, Santa Cruz); ERK2 (D-2, Santa Cruz); and pS^6, pS6K, pmTOR, pRAPTOR, pRICTOR, pMAPK (Cell Signaling). Coimmunoprecipitation assays used antibodies for SRC3 (Santa Cruz, C-20) and ERα (Santa Cruz, F10).

[3] = tested on: mTOR and MAPK signaling; test: Western blot of signaling pathway activation in MCF-7 cells; type: cell-based, human
Source text: as §1

[4] = molecular target: T2, ERα and RAPTOR (Homo sapiens, UniProt P03372); test: proximity ligation assay in MCF-7 cells; type: cell-based; conditions: 10 nM E2 or 1 μM PaPE-1, 15 min
T2 construct: endogenous in cells; host or cells: MCF-7
T2 sequence (P03372 1-595): T1 sequence (P03372 1-595)
Description: Next day, the proximity ligation assay (PLA) was performed using the Duolink In Situ kit (Olink Bioscience) according to the manufacturer's instructions, as described in Zhao et. al., Endocrinology, 154, 1349-1360, 2013. Briefly, overnight incubation with primary antibodies was followed by hybridization with two PLA probes at 37° C. for 1 h, and then by ligation for 15 min and amplification for 90 min at 37° C. A coverslip was mounted on each slide and image acquisition and analysis conducted. Samples were imaged using a 63×/1.4 Oil DIC M27 objective in a Zeiss LSM 700 or 710 laser scanning confocal microscope. Images were obtained in a sequential manner using a 488 Ar (10 mW) laser line for PLA signal. The individual channels for DAPI and PLA signal were obtained using a sequential scanning mode to prevent bleed-through of the excitation signal. Laser power, gain and offset were kept constant across the samples and scanned in a high resolution format of 512×512 or 1024×1024 pixels with 2/4 frames averaging. Further quantification of the images used Fiji software (http://fiji.sc/wiki/index.php/Fiji). Briefly, images were converted to 8 bit for segmentation for each channel, and images were background subtracted using a rolling-ball method, with a pixel size of 100 and segmented using the DAPI channel.

[5] = pharmacokinetics after SC injection in ovariectomized mice; type: in vivo; conditions: female, C57BL/6, mouse, serum, 100 ug, subcutaneous injection
Description: For short-term studies, ovariectomized C57BL/6 mice were injected SC with 100 μg of PaPE-1 in 100 μl DMSO. Three mice were sacrificed at each time point, and 400 μl of blood was obtained from the abdominal aorta. Samples were centrifuged at 2000 g for 10 min, and serum was collected. A 50 μl portion of each sample was submitted to the Metabolomics Center at the University of Illinois for analysis. For longer-term studies, ovariectomized C57BL/6 mice were implanted SC with a pellet fabricated with 8 mg PaPE-1 and 12 mg cholesterol. Blood samples (30 μl) were collected by tail snipping every week until the third week of treatment. Samples were centrifuged at 2000 g for 10 min and serum was collected. Serum (10 μl) was mixed with 40 μl of PBS and submitted to the Metabolomics Center for analysis. For analysis, a mass standard of PaPE-1 (labeled with three deuterium atoms) was added to each sample before analysis by liquid chromatography-mass spectrometry using the 5500 QTrap with Agilent 1200 HPLC.

[6] = tested on: ERα knock-out (ERKO) C57BL/6 mice; test: effects in ERα knock-out (ERKO) mice; type: in vivo; conditions: 3 weeks; listed as PaPE-1
Description: FIG. 13. Effects of PaPE-1 require ERα. […] Animals were on normal chow diet. Change in body weight was monitored. (B) Uterus weights of animals from (A) at the end of 3 weeks of vehicle (Veh) or ligand treatment. (C) Triglyceride levels in the blood of animals from (A) after 3 weeks of ligand exposure.
Studies used wild type and ERα knockout mice in C57BL/6 background. All experiments involving animals were conducted in accordance with National Institutes of Health standards for the use and care of animals, with protocols approved by the University of Illinois at Urbana-Champaign and the University of Texas Southwestern Medical Center. Wild-type C57BL/6 mice were purchased from Jackson Laboratories/National Cancer Institute. ERα knockout mice with complete excision of ERα and wild type littermates were obtained from Taconic and were used as described previously in Dupont et al., Development, 127, 4277-4291, […], and Hewitt et al. FASEB J., 24, 4660-4667, 2010.

[7] = tested on: MCF-7 cells; test: Seahorse cell metabolic phenotype assays in MCF-7 cells; type: cell-based, human; conditions: 24 hours; listed as PaPE-1
[8] = tested on: ovariectomized C57BL/6 mice; conditions: mouse, in vivo
[9] = tested on: LRRC54 gene; test: LRRC54 (non-genomic gene) mRNA expression, qPCR; conditions: for LRRC54 (non-genomic gene) mRNA expression, in words: MCF-7 cells, 1 μM PaPE or 10 nM E2 for 4 h where stated, versus vehicle, E2 or compound 2
[10] = tested on: ovariectomized C57BL/6 mice; test: stroke model, transient middle cerebral artery occlusion (tMCAo)

SMILES: Cc1cc(-c2ccc3c(c2)CCC3O)cc(C)c1O (racemic) [Compound 2, 5-(4-hydroxy-3,5-dimethylphenyl)-2,3-dihydro-1H-inden-1-ol]
- proliferation of MCF-7 cells [1]: did not stimulate proliferation
- coimmunoprecipitation of ERα with SRC3 [2]: no coimmunoprecipitated complexes were observed
- Serl 18 phosphorylation of ERα [3]: did not induce any detectable
- activation of mTOR, MAPK (and AKT) signaling ([3]; listed as PaPE-1): very efficient in activating mTOR and MAPK signaling; also recorded: selectively activated mTOR and MAPK signaling
- interaction of ERα with RAPTOR [4]: to a greater extent; also recorded: induces interaction between ERα and Raptor
- half-life [5]: ~1 h
- ability to diminish body weight gain after ovariectomy in ERKO mice [6]: lost in the ERKO mice; also recorded: require ERα
- OA-induced glycolytic and aerobic respiration with PaPE-1 [7]: reversed by PaPE-1 treatment; also recorded: normalized by adding PaPE-1
- uterine wet weight [8]: no effect
- LRRC54 activation, fold higher level than E2 ([9]; FIG. 14): 1.9 fold
- LRRC54 (non-genomic gene) mRNA expression, in words [9]: equivalent activities
- LRRC54 (non-genomic gene) mRNA expression, in words ([9]; listed as PaPE-1): LRRC54 stimulation
- severity of CNS injury on MRI ([10]; 3 and 7 days): decreased compared with control treatment
- infarct volumes ([10]; 3d and 7d post-tMCAo, compared with vehicle): significantly reduced infarct volumes
- degree of swelling associated with the injury ([10]; 3 days post-stroke): attenuated
- reduction of leukocytes infiltrated in the brain ([10]; 3 days post-stroke): 93%
- rotorod functional recovery, of baseline ([10]; 6d post-tMCAo): 85%
- rotorod functional recovery, of baseline ([10]; 13d post-tMCAo): 82%
- rotorod function post-stroke, in words ([10]; mouse, in vivo): improved function post-stroke
